In one data set the test system is p-PKC (PKC gamma Thr514). The data set is described as follows: Western blot of brain homogenates after CRS: p-PKC. It is filed as in vivo, rats. As to the method:
(§1) To simulate a depressive state, experimental animals were placed in the individual restrainers (“Open Science”, Russia) for six hours daily for 14 days (hereinafter “chronic restraint stress=CRS”). […] The administration of drugs was carried out daily, 30 minutes before placing rats in the restrainers.
(§2) At the end of the behavioral examination, the rats were decapitated, and their brains extracted for subsequent western blot analysis. A total of 51 samples of homogenized brain tissue from Sprague-Dawley rats (3-4 months old) were received from the Customer. 25 samples were homogenates of the cerebral cortex, 26 samples were homogenates of the hippocampus isolated from rat brain. The amount of homogenized tissue in each sample was less than 50 mg. […] They were Incubated in ice for 30 minutes. Then the samples were centrifuged at 12000 g, 15 minutes, +4° C.
(§3) All the steps necessary for the analysis of protein levels of BDNF, p-p70S6k (Thr421/Ser424), p-ERK (one and two), (Thr202/Tyr204), p-GSK3β (Ser9), p-PKC (PKCG gamma Thr514) and the GAPDH reference protein were provided in the studied samples using Western blotting. […]
(§4) The integral areas of the spots obtained were calculated as a quantitative assessment and then normalized to the amount of protein in the sample.
(In general: In western blotting, separated proteins are transferred to a membrane and probed.)

The next data set has as its system BDNF. The data set is described as follows: Western blot of brain homogenates after CRS: BDNF. The format is in vivo, rats. As to conditions: fluoxetine 5 mg/kg. As to the method: as §1, §2, §3, §4
A further data set concerns p-ERK 2 (Tyr204). Kind of data set: Western blot of brain homogenates after CRS: p-ERK2. As to conditions: fluoxetine 5 mg/kg; FQSE 0.3 mg/kg; against stress and control levels. It is filed as in vivo, rats. Here is the method: as §1, §2, §3, §4
For another data set, the system named is p-GSK3β (Ser9). The data set is described as follows: Western blot of brain homogenates after CRS: p-GSK3β. The format is in vivo, rats. As to conditions: fluoxetine; FQSE. Here is the method:
as §1, §2, §3, §4

In the next data set the test system is Sprague-Dawley rats. The data set is described as follows: Chronic restraint stress model: Porsolt Forced Swimming test. It is filed as in vivo. As to conditions: CRS, FQSE 3 mg/kg intranasal. Here is the method: To simulate a depressive state, experimental animals were placed in the individual restrainers (“Open Science”, Russia) for six hours daily for 14 days (hereinafter “chronic restraint stress=CRS”). In order to study the neurotrophic effect of FQSE (SEQ ID NO:10), the animals were divided into 5 groups, 10 individuals each. The groups are as follows: Group 1, control unstressed animals, receiving 10 μl (a pair of 5 μl doses) of saline intranasally; Group 2, stressed animals, receiving 10 pI of saline intranasal (CRS+Veh); Group 3, stressed animals, receiving fluoxetine (FO) at a dose of 5 mg/kg intraperitoneal (CRS+FO, positive control); Group 4, stressed animals, receiving a peptide drug at a dose of 0.3 mg/kg in 10 pI of saline intranasal (CRS+FQSE (SEQ ID NO:10) 0.3); Group 5, stressed animals, receiving a peptide drug at a dose of 3 mg/kg in […] of saline intranasal (CRS+FQSE (SEQ ID NO:10) 3). The administration of drugs was carried out daily, 30 minutes before placing rats in the restrainers. […]
The changes in motor activity and emotional state of animals were evaluated in the Open Field (OFT) and Porsolt Forced Swimming tests (FST) fourteen days after the start of the experiment. […] For three minutes the horizontal and vertical motor activity was measured. The total number of crossed squares, as well as the length of the distance, traveled, and the number of rears was counted. […]

In a further data set the test system is p-p70S6k (Thr421/Ser424). Kind of data set: Western blot of brain homogenates after CRS: p-p70S6k. The format is in vivo, rats. As to conditions: fluoxetine 5 mg/kg. As to the method: as §1, §2, §3, §4
The next data set concerns Sprague Dawley rats. The data set is described as follows: Predator odor stress exposure and conditioned place aversion (PTSD model). As to conditions: DOX 1 mg/kg IP. It is filed as in vivo. Here is the method: Doxazosin (DOX, Sigma-Aldrich, St. Louis, MO, USA, 1 mg/kg, IP) was prepared in sterile saline. Previously it has been shown that DOX is effective in the treatment of some PTSD symptoms in veterans (Rodgman et al. (2016). Doxazosin XL reduces symptoms of posttraumatic stress disorder in veterans with PTSD: a pilot clinical trial. J. Clin. Psychiat., 77(5), e561-565). The two doses of FQSE (SEQ ID NO:10) (0.05 and 0.5 mg/kg, CS, Menlo Park, CA) were prepared fresh for each test day in sterile saline and administered intra-nasally 30 minutes prior to testing. Each dose was administered in a randomized order across groups. […] The same procedure with isoflurane was used to administer doxazosin however the drug was administered IP. Individuals performing behavioral tests were blind to drug treatment. […] Potential differences between groups that were not odor exposed and odor exposed groups were analyzed using One-Way ANOVA with drug dose as the primary factor. […]

Data set [1] relates to Wistar rats. The data set is described as follows: Learned helplessness model: Elevated Plus-Maze test. As to conditions: Map 4.5 mg/kg i/p; FQSE 0.5 and 2.5 mg/kg i/n. It is filed as in vivo. Here is the method: Weigh was measured on an analytical balance, with an accuracy of 0.0001 g, the solution was prepared with a margin of 0.5 ml. For the experiment, a freshly prepared FQSE (SEQ ID NO:10) solution was used; for the second day, this solution was stored in a refrigerator at +4° C. The tetracyclic antidepressant Maprotiline (Lyudiomil), a monoamine reuptake inhibitor, was used as a positive control. […] The classical paradigm of “learned helplessness” (LH) was used as an experimental model of depression ([…] et al. (1975). Learned helplessness in the rat. J. Comp. Physiol. […] The state of “learned helplessness” according to modern concepts adequately reflects anxiety-depressive syndrome, reproducing the main signs of a person's endogenous depression, including the severity of effects of helplessness, hopelessness, and characteristic endocrine disorders. To develop LH, rats were subjected to uncontrolled unavoidable aversive stress (electro cutaneous irritation). […] Stimulation was performed automatically using a software randomizer. […] The time spent by the animal inside and outside the closed arms (in the open arms and in the center), the number of transitions between the arms, the number of stretch-attended postures were evaluated. […]

In data set [2] the test system is Wistar rats. Kind of data set: Learned helplessness model: Open Field test. It is filed as in vivo. As to the method:
(§5) Weigh was measured on an analytical balance, with an accuracy of 0.0001 g, the solution was prepared with a margin of 0.5 ml.
(§6) The tetracyclic antidepressant Maprotiline (Lyudiomil), a monoamine reuptake inhibitor, was used as a positive control. Animals received a daily intraperitoneal injection (i.p) of Maprotiline for ten days (M9651, Merck, 4.5 mg/kg, dissolved in saline: 200 μl per administration).
(§7) The state of “learned helplessness” according to modern concepts adequately reflects anxiety-depressive syndrome, reproducing the main signs of a person's endogenous depression, including the severity of effects of helplessness, hopelessness, and characteristic endocrine disorders. To develop LH, rats were subjected to uncontrolled unavoidable aversive stress (electro cutaneous irritation). […] Stimulation was performed automatically using a software randomizer.
The Open Field test is a classic method for assessing the level of motor activity and exploratory behavior of rodents in new stressogenic conditions. […] On the 5th day after stressing in the LH model, the rat was placed in the center of the OF. The following parameters were measured for 5 minutes: latency to start of moving, the number of crossed squares (outside, intermediate and central), the duration of the rears and immobilization time.
(§8) “LH”—a group of animals subjected to stress, in which a depressive state of “learned helplessness” was developed. Pharmacotherapy was not performed in the LH group; the development of experimental depression was studied. […] “LH+Map.”—the comparison drug group. Maprotiline was injected intraperitoneally at a dosage of 4.5 mg/kg ten days daily to develop experimental depression.

In data set [3] the test system is Wistar rats. The data set is described as follows: Learned helplessness model: Porsolt forced swimming test, one-day modification. As to conditions: Maprotiline 4.5 mg/kg i/p; FQSE 0.5 mg/kg i/n. The format is in vivo. As to the method:
as §5, §6, §7, §8

The subject of data set [4] is corticosterone in rat plasma. The data set is described as follows: Learned helplessness model: plasma corticosterone and dexamethasone test. It is filed as in vivo, rats. Here is the method:
On the first day of the test (DXMT1) at 10:00 AM, animals were injected intraperitoneally with saline, then at 04:00 PM on the same day peripheral blood samples were taken to determine the basal level of the hormone, which caused stress, and 30 minutes after taking the rat from the cage and receiving initial sample, re-taken blood to measure hormone stress level.
To study the sensitivity of the HPA system to feedback signals, rats were injected with dexamethasone (10 μg/kg, intraperitoneally) the next day (DXMT2) at 10 am. The procedure for taking blood from the tail vein was repeated after 6 and 6.5 hours. The corticosterone content was determined by enzyme-linked immunosorbent assay with reagent kits “Corticosterone-ELISA” (“Hema”, RF) in two parallel samples.
as §8

The structures appear in SMILES notation.

Turning to `CNCCC(Oc1ccc(C(F)(F)F)cc1)c1ccccc1` (stereo not shown) [fluoxetine], the “levels of p-PKC (Thr 514) in the cerebral cortex” value in the data set on p-PKC (PKC gamma Thr514) (fluoxetine 5 mg/kg, FQSE 0.3 mg/kg) is recorded as “showed no changes”. Further, the “normalization of p-PKC levels in the hippocampus” value with p-PKC (PKC gamma Thr514) (fluoxetine, FQSE) is “neither fluoxetine nor peptide FQSE (SEQ ID NO:10) contributed to the normalization”. The “levels of BDNF protein in cerebral cortex and hippocampus” value with BDNF is “showed no relation”. Further, the “cortical levels of p-ERK 2 (Tyr204)” value with p-ERK 2 (Tyr204) is recorded as “decreased”. The “p-GSK3β in the hippocampus” value in the data set with p-GSK3β (Ser9) is “no response”. The “duration of active swimming” value with Sprague-Dawley rats (FO 5 mg/kg intraperitoneal) was “no effect”. In the data set on Sprague-Dawley rats (FO 5 mg/kg, vs CRS+Veh), the “time spent passive (inactive) swimming” value was “had no effect”. In the data set with p-p70S6k (Thr421/Ser424), the “levels of p-p70S6k in cerebral cortex or hippocampus” value is listed as “showed no relation”.
Regarding `COc1cc2nc(N3CCN(C(=O)C4COc5ccccc5O4)CC3)nc(N)c2cc1OC` (stereo not shown) [Doxazosin], the “behavior of groups not exposed to predator odor (time in randomly paired chambers)” value in the data set with Sprague Dawley rats (FQSE 0.05 and 0.5 mg/kg i.n.) was “normal behavior”. For the same compound, the “predator odor-induced place aversion” value in the data set on Sprague Dawley rats (FQSE 0.5 mg/kg intra-nasally, vs VEH) is given as “there was not a significant difference from VEH”.
`CNCCCC12CCC(c3ccccc31)c1ccccc12` [Maprotiline]: in the data set with Wistar rats [1], the “appearance on the open arms” value was “did not reach statistical significance”. Besides, the “vertical activity (rears)” value in the data set with Wistar rats [2] (FQSE 0.5 mg/kg i/n, Map 4.5 mg/kg i/p) is reported as “did not differ”. In addition, the “freezing time when placed in the center of the OF” value in the data set with Wistar rats [2] (FQSE 2.5 mg/kg i/n, Maprotiline 4.5 mg/kg i/p, daily, vs LH group) is listed as “significant decrease”. The “decrease in the number of animals showing immobilization after LH” value with Wistar rats [2] (Maprotiline 4.5 mg/kg i/p, FQSE 2.5 mg/kg i/n) is recorded as 2.3 fold. Besides, in the data set with Wistar rats [3], the active swimming time entry is given as “increase in active swimming time” and the time spent immobile result was “significant reduction”. Further, the “magnitude of suppression—Δ between the Saline and DXM in the stress level of corticosterone” value in data set [4] (LH + FQSE 0.5, LH + Map.) was 248.5 nmol/L. The “suppression of the stress-induced increase in CS in blood after DXM” value in [4] (Map 4.5 mg/kg, FQSE 0.5 mg/kg) is on record as “significant suppression”. Besides, the “basal level of corticosterone (CS) in plasma” value in data set [4] (Map, FQSE in both doses (0.5, 2.5 mg/kg), vs LH group) was “significantly lower level of CS”.
